Biological target: T1, yeast α-GLy (α-glucosidase, Sigma G0660) (Saccharomyces cerevisiae, UniProt P53341)
T1 construct: purchased Sigma G0660
Assay: biochemical
Type: biochemical
Settings: IC50 ± SE, α-glucosidase inhibition, yeast α-glucosidase, 37°C, pH 6.8
Method: S1. Materials and Methods […]
glucosidase inhibition assay. α-Glucosidase enzyme inhibition assay was carried out in a 96-well microplate. The method’s principle based on the hydrolyzed reaction of 4-nitrophenyl-α-D-glucopiranoside with α-glucosidase enzyme into yellow 4- […]
p-Nitrophenyl α-D-Glucoside a- Gl ucosidas e α-D-Glucose + p- Nitrophenol α-Glucosidase inhibitory activity assay was performed following the modified method of Pistia Brueggeman and Hollingsworth with slight modification. Quinopimaric […]
concentrations of 256, 64, 16, 4 and 1 µg/mL. In a 96-well plate, a reaction mixture containing 20 μL of phosphate buffer (100 mM; pH 6.8), 20 μL of α-glucosidase (0.3 U/mL, Sigma G0660) (this concentration was determined by a series of α-glucosidase […]
linearity between the enzyme concentration and the absorbance of yellow color mixture after reaction which was approximately 5-fold higher than the back ground and at least […]
concentrations was pre-incubated for 10 min at 37°C. Then 20 μL of […] p-nitrophenyl α-D-glucopyranoside (Sigma N1377) was added to the mixture as a substrate. After further incubation at 37°C for 30 min, the reaction was stopped by adding 80 μL of 0.1 […]
solution were prepared using the phosphate buffer […]; pH 6.8. […]
as a positive control and water as negative control. The yellow color produced was quantitated by colorimetric analysis and reading the absorbance at 410 nm. Each experiment was performed in triplicates, along with appropriate blanks. The solvent DMSO was use as negative control to evaluate its effect on α-glucosidase activity. […]
or substrate in negative control. Back ground was determined by volume of buffer as […]
The % inhibition has been obtained using the formula:
% inhibition = {Absorbance (control) –Absorbance (sample)}/Absorbance (control) IC50 value is defined as the concentration of samples inhibiting 50% of α-glucosidase activity under the stated assay conditions. […]

T1 sequence (P53341 whole entry): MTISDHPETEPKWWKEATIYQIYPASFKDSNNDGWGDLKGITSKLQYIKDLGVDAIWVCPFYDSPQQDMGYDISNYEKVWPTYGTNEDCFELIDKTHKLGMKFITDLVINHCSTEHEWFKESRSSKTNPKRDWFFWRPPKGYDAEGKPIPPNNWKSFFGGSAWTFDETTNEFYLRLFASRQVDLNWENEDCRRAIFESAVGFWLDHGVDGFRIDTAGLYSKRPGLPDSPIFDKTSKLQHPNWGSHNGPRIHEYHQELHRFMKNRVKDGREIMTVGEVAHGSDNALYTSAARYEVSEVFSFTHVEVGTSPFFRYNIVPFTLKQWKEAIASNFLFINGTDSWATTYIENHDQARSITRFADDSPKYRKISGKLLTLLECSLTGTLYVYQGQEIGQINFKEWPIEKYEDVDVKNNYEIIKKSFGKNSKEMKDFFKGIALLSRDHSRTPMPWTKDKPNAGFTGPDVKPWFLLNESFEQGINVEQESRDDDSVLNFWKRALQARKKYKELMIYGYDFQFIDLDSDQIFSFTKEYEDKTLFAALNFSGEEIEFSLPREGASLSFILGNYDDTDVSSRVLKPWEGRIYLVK

Compound	IC50 [µM]
COC(=O)[C@]1(C)CCC[C@]2(C)[C@H]3C[C@@H]4[C@H]5[C@@H]6CCC(=NO)[C@H]5[C@@]3(CC[C@H]21)C[C@@]4(C(C)C)O6 [Compound 4]	> 255
COC(=O)[C@]1(C)CCC[C@]2(C)[C@H]3C[C@H]4C(C(C)C)=C[C@]3(CC[C@H]21)[C@H]1[C@@H]4[C@@H](OCCC(N)=NO)CC[C@@H]1OCCC(N)=NO [Compound 23]	> 255
COC(=O)[C@]1(C)CCC[C@]2(C)[C@H]3C[C@H]4C(C(C)C)=C[C@]3(CC[C@H]21)[C@@H]1C(=O)CC[C@H](OC(C)=O)[C@@H]14 [Compound 15]	> 255
COC(=O)[C@]1(C)CCC[C@]2(C)[C@H]3C[C@@H]4[C@H]5[C@@H]6Cc7c([nH]c8ccccc78)[C@H]5[C@@]3(CC[C@H]21)C[C@@]4(C(C)C)O6 [Compound 33]	65.98 ± 0.03
COC(=O)[C@]1(C)CCC[C@]2(C)[C@H]3C[C@@H]4[C@H]5[C@@H]6CC(Br)C(=O)[C@H]5[C@@]3(CC[C@H]21)C[C@@]4(C(C)C)O6 (some centres unmarked) [Compound 25]	> 255
CC(C)C1=C[C@@]23CC[C@@H]4[C@](C)(CCC[C@@]4(C)C(=O)N4CCCNCC4)[C@H]2C[C@@H]1[C@H]1C(=O)CCC(=O)[C@H]13 [Compound 11]	> 255
COC(=O)[C@]1(C)CCC[C@]2(C)[C@H]3C[C@H]4C(C(C)C)=C[C@]3(CC[C@H]21)[C@@H]1C(=O)CC[C@H](OC(=O)CCCC(=O)O)[C@@H]14 [Compound 18]	> 255
COC(=O)[C@]1(C)CCC[C@]2(C)[C@H]3C[C@H]4C(C(C)C)=C[C@]3(CC[C@H]21)[C@@H]1C(=O)CC[C@H](OC(=O)CCC(=O)O)[C@@H]14 [Compound 17]	> 255
CC(C)C1=C[C@@]23CC[C@@H]4[C@](C)(CCC[C@@]4(C)C(=O)O)[C@H]2C[C@@H]1[C@H]1C(=O)CCC(=O)[C@H]13 [Compound 8, 2,3-dihydroquinopimaric acid]	35.6 ± 0.92
COC(=O)[C@]1(C)CCC[C@]2(C)[C@H]3C[C@H]4C(C(C)C)=C[C@]3(CC[C@H]21)[C@@H]1C(=O)CC[C@H](OC(=O)c2ccccc2C(=O)O)[C@@H]14 [Compound 20]	> 255
COC(=O)[C@]1(C)CCC[C@]2(C)[C@H]3C[C@H]4C(C(C)C)=C[C@]3(CC[C@H]21)[C@H]1[C@@H]4[C@@H](OC(=O)c2cccnc2)CC[C@@H]1OC(=O)c1cccnc1 [Compound 24]	> 255
COC(=O)[C@]1(C)CCC[C@]2(C)[C@H]3C[C@@H]4[C@H]5[C@@H]6CCC(=NOCCC#N)[C@H]5[C@@]3(CC[C@H]21)C[C@@]4(C(C)C)O6 [Compound 5]	> 255
COC(=O)[C@]1(C)CCC[C@]2(C)[C@H]3C[C@@H]4[C@H]5[C@@H]6CCC(=O)[C@H]5[C@@]3(CC[C@H]21)C[C@@]4(C(C)C)O6 [Compound 3, 1β,13α-epoxy methyldihydroquinopimarate]	> 255
COC(=O)[C@]1(C)CCC[C@]2(C)[C@H]3C[C@H]4C(C(C)C)=C[C@]3(CC[C@H]21)[C@@H]1C(=O)CC[C@H](O)[C@@H]14 [Compound 14]	> 255
COC(=O)[C@]1(C)CCC[C@]2(C)[C@H]3C[C@H]4C(C(C)C)=C[C@]3(CC[C@H]21)[C@@H]1C(=O)CC[C@H](OCCC#N)[C@@H]14 [Compound 16]	> 255
COC(=O)[C@]1(C)CCC[C@@]2(C)[C@H]1CC[C@]13C=C(C(C)C)[C@H](C[C@H]21)C1=C3C(=O)C=CC1=O [Compound 41, 1a,4a-dehydroquinopimaric acid methyl ester]	> 255
COC(=O)[C@]1(C)CCC[C@]2(C)[C@H]3C[C@H]4C(C(C)C)=C[C@]3(CC[C@H]21)[C@H]1[C@@H]4[C@@H](O)CC[C@@H]1O [Compound 21]	> 255
COC(=O)C(CCSC)NC(=O)[C@]1(C)CCC[C@]2(C)[C@H]3C[C@H]4C(C(C)C)=C[C@]3(CC[C@H]21)[C@@H]1C(=O)CCC(=O)[C@@H]14 (some centres unmarked) [Compound 13]	> 255
C#CCNC(=O)[C@]1(C)CCC[C@]2(C)[C@H]3C[C@H]4C(C(C)C)=C[C@]3(CC[C@H]21)[C@@H]1C(=O)CCC(=O)[C@@H]14 [Compound 10]	> 255
COC(=O)[C@]1(C)CCC[C@]2(C)[C@H]3C[C@@H]4[C@H]5[C@@H]6CC7NC(=S)NC7[C@H]5[C@@]3(CC[C@H]21)C[C@@]4(C(C)C)O6 (some centres unmarked) [Compound 32]	9.66 ± 0.77
CC(C)C1=C[C@@]23CC[C@H]4[C@](C)(CO)CCC[C@]4(C)[C@H]2C[C@@H]1[C@@H]1[C@H]3[C@@H](O)CC[C@@H]1O [Compound 2]	> 255
COC(=O)C(C)NC(=O)[C@]1(C)CCC[C@]2(C)[C@H]3C[C@H]4C(C(C)C)=C[C@]3(CC[C@H]21)[C@@H]1C(=O)CCC(=O)[C@@H]14 (some centres unmarked) [Compound 12]	> 255
COC(=O)[C@]1(C)CCC[C@]2(C)[C@H]3C[C@@H]4[C@H]5[C@@H]6Cc7cn[nH]c7[C@H]5[C@@]3(CC[C@H]21)C[C@@]4(C(C)C)O6 [Compound 31]	> 255
COC(=O)[C@]1(C)CCC[C@]2(C)[C@H]3C[C@H]4C(C(C)C)=C[C@]3(CC[C@H]21)[C@@H]1C(=O)CC[C@H](OC(=O)c2cccnc2)[C@@H]14 [Compound 19]	> 255
CC(C)C1=CC23CCC4C(C)(C(=O)O)CCCC4(C)C2CC1c1c(O)ccc(O)c13 (centres unmarked) [Compound 49]	> 255

Same assay, conditions: yeast α-glucosidase, 37°C, pH 6.8; read-out: IC50 ± SE, α-glucosidase inhibition

Compound	IC50 [µM]
COC(=O)c1c(C)[nH]c2c3c(c(O)cc12)[C@H]1C[C@@H]2[C@@]4(C)CCC[C@@](C)(C(=O)OC)[C@@H]4CC[C@@]32C=C1C(C)C [Compound 36]	8.94 ± 0.96
COC(=O)[C@]1(C)CCC[C@]2(C)[C@H]3C[C@H]4C(C(C)C)=C[C@]3(CC[C@H]21)[C@@H]1C(=O)C(=Cc2ccc(OC)cc2)C[C@H](O)[C@@H]14 [Compound 6]	1.63 ± 0.006
COC(=O)[C@]1(C)CCC[C@]2(C)[C@H]3C[C@@H]4[C@H]5[C@@H]6CC(=Cc7ccc(OC)cc7)C(=O)[C@H]5[C@@]3(CC[C@H]21)C[C@@]4(C(C)C)O6 [Compound 27]	> 255
COC(=O)c1c(C)[nH]c2c3c(c(O)cc12)[C@H]1C[C@@H]2[C@@]4(C)CCC[C@@](C)(C(=O)O)[C@@H]4CC[C@@]32C=C1C(C)C [Compound 35]	7.95 ± 0.2
COC(=O)c1c(C)[nH]c2c3c(c(OC(C)=O)cc12)[C@H]1C[C@@H]2[C@@]4(C)CCC[C@@](C)(C(=O)OC)[C@@H]4CC[C@@]32C=C1C(C)C [Compound 37]	7.28 ± 0.4
COC(=O)[C@]1(C)CCC[C@]2(C)[C@H]3C[C@@H]4[C@H]5[C@@H]6CC(=Cc7ccccc7)C(=O)[C@H]5[C@@]3(CC[C@H]21)C[C@@]4(C(C)C)O6 [Compound 26]	13.08 ± 0.01
COC(=O)[C@]1(C)CCC[C@]2(C)[C@H]3C[C@@H]4[C@H]5[C@@H]6CC(=Cc7cccnc7)C(=O)[C@H]5[C@@]3(CC[C@H]21)C[C@@]4(C(C)C)O6 [Compound 30]	38.8 ± 0.33
COC(=O)[C@]1(C)CCC[C@]2(C)[C@H]3C[C@H]4C(C(C)C)=C[C@]3(CC[C@H]21)[C@@H]1C(=O)C(=Cc2ccco2)C[C@H](O)[C@@H]14 [Compound 7]	2.5 ± 0.011
COC(=O)[C@]1(C)CCC[C@]2(C)[C@H]3C[C@@H]4[C@H]5[C@@H]6CC(=Cc7ccc(OC)c(OC)c7)C(=O)[C@H]5[C@@]3(CC[C@H]21)C[C@@]4(C(C)C)O6 [Compound 28]	12.7 ± 0.21
COC(=O)[C@]1(C)CCC[C@]2(C)[C@H]3C[C@@H]4[C@H]5[C@@H]6CC(=Cc7ccco7)C(=O)[C@H]5[C@@]3(CC[C@H]21)C[C@@]4(C(C)C)O6 [Compound 29]	1.63 ± 0.041
